Key:
[1] = Effect of strontium intake on serum hormone levels in healthy individual(s); assay type: in vivo, human
Method: When healthy individuals were given 7 mg strontium chloride per day, the PRL level increased within two weeks 50-80% from a normal base value. […]
The effect of strontium intake on selected physiological reactions was evaluated by administering strontium alone or together with the full dietary support program described in table 1 to four prostate cancer patients, P1-P4, and to one healthy individual. The results are shown in table 4, which also gives the normal values for the measured hormones.

prostate cancer (CaP) = assay: Strontium alone or with full dietary support program in prostate cancer patients: hormone/PSA levels and clinical course; assay type: in vivo, human
Method: In addition to the dietary biomodulating components prescribed (see Table 1), the patient ingested a daily amount of 7 mg of strontium oxide, contained in birch ash that they prepared at home and was taking continuously at a dose of about 8 g per day.
• 1. Oral administration of each (2-5 g/day) of respective L-amino acids: Arg, Asp, Glu, Gly, Lys and Ser in connection with meals. The amino acids are manufactured by Degussa Ag, Germany. • 2. […] Small physiologic amounts of vitamins: A, B, C, D, E, K, folic acid and lycopene. • 4. To improve lymphopoiesis and the immune defense of patients a diet containing prionfree neurogenic lipids (equivalent to approx. 50 g of brain) was recommended, (purchased and canned by Neurofood Ltd. Finland). • 5. All these dietary ingredients can be mixed together in yoghurt, forming a daily ration, using pre-packed pulvers. • 6. Dose-levels are adjusted based on clinical response as measured, and correlated to the patient's body weight.
The effect of strontium intake on selected physiological reactions was evaluated by administering strontium alone or together with the full dietary support program described in table 1 to four prostate cancer patients, P1-P4, and to one healthy individual.

[2] = long-lasting use for diagnostic purposes, i.v. dose up to 80 mg SrCl2; cited from earlier work
[3] = P0 without Sr for three weeks (after the Sr course)
[4] = healthy individual P0, after Sr 7 mg, 14 days
[5] = healthy individuals, 7 mg strontium chloride per day, two weeks
[6] = healthy persons, ingestion of strontium (in mg's)
[7] = patients diagnosed with prostate cancer, administration of strontium
[8] = laboratory pattern, orchiectomized patient P1 (No. 1), 7 mg strontium oxide daily plus dietary biomodulating components
[9] = patient P1, year 2003, 7 mg strontium oxide daily (birch ash) plus dietary biomodulating components

[Cl-].[Cl-].[Sr+2] [strontium chloride]
DHEAS [1, 3]: 2.7 µmol/L
FSH [1, 3]: 11 IU/L
PRL [1, 3]: 337 mU/L
PSA [1, 3]: 0.4 µg/L
serum DHEA [1, 3]: 3.6 nmol/L
DHEAS [1, 4]: 2.3 µmol/L
FSH [1, 4]: 13 IU/L
PRL [1, 4]: 389 mU/L
PSA [1, 4]: 0.4 µg/L
serum DHEA [1, 4]: 9.8 nmol/L
FSH level ([1]; healthy individuals, 7 mg strontium chloride per day): can increase or remain on a level exceeding normal levels
serum DHEA level [1, 5]: can show an increase in value
serum DHEAS level [1, 5]: decreased
serum prolactin (PRL) level increase ([1]; healthy individuals, 7 mg strontium chloride per day, within two weeks, from normal base value): 50-80%
PRL increase [1, 6]: > 50%
decrease in DHEAS [1, 6]: ~40%
DHEAS level (prostate cancer (CaP); [7]): decrease
FSH level (prostate cancer (CaP); [7]): increases
PSA level (prostate cancer (CaP); [7]): decrease
DHEAS (prostate cancer (CaP); prostate cancer patient P2): <0.8 µmol/L
PRL (prostate cancer (CaP); prostate cancer patient P2): 852 mU/L
PSA (prostate cancer (CaP); prostate cancer patient P2): 12.6 µg/L
DHEAS (prostate cancer (CaP); prostate cancer patient P3 ±): 2.5 µmol/L
FSH (prostate cancer (CaP); prostate cancer patient P3 ±): 12 IU/L
PRL (prostate cancer (CaP); prostate cancer patient P3 ±): 568 mU/L
PSA (prostate cancer (CaP); prostate cancer patient P3 ±): 12.7 µg/L
serum DHEA (prostate cancer (CaP); prostate cancer patient P3 ±): 4.3 nmol/L
DHEAS (prostate cancer (CaP); prostate cancer patient P4 ±): <0.8 µmol/L
FSH (prostate cancer (CaP); prostate cancer patient P4 ±): 13 IU/L
PRL (prostate cancer (CaP); prostate cancer patient P4 ±): 1879 mU/L
PSA (prostate cancer (CaP); prostate cancer patient P4 ±): 24.0 µg/L
serum DHEA (prostate cancer (CaP); prostate cancer patient P4 ±): 2.4 nmol/L
harmful side effects [2]: No harmful therapeutic side effects

[O-2].[Sr+2] [strontium oxide]
Activin (prostate cancer (CaP); [8]): 330 to 500 pg/mL
DHEA (prostate cancer (CaP); [8]): <2.0 nmol/L
DHEAS (prostate cancer (CaP); [8]): <0.8 µmol/L
Inhibin (prostate cancer (CaP); [8]): <7.8 pg/mL
PRL (prostate cancer (CaP); [8]): 15-95 mU/L
PSA (prostate cancer (CaP); [8]): <0.1 µg/L
SHBG (prostate cancer (CaP); [8]): 58 to 61 nmol/L
Testost (prostate cancer (CaP); [8]): 1.0 nmol/L
time until bone-metastases disappeared (prostate cancer (CaP); patient P1, multiple bone-metastases): four
time until bone-pain subsided (prostate cancer (CaP); patient P1, multiple bone-metastases, from beginning of treatment): 6 months
DHEA value (prostate cancer (CaP); [9]): below 2.0
FSH level (prostate cancer (CaP); [9]): about 48 IU/l
prolactin (PRL) value (prostate cancer (CaP); [9]): about 97 mU/l
serum DHEAS level (prostate cancer (CaP); patient P1, year 2003, 7 mg strontium oxide daily (birch ash) plus dietary biomodulating components, below detectable limit): < 0.8
clinical condition (prostate cancer (CaP); patient P1, year 2003, treatment since 1990): excellent clinical condition

— patent US20100074968A1, “AGENT AND METHOD FOR TREATING CANCER COMPRISING STRONTIUM, AMINO ACID(S) AND MINERAL AGENT(S)” (HELSINGFORS INSTITUTION FÖR BIOMMUNTERAPI AB., priority 2003, published 2010)
